Test results: patent US20240316008A1, “TREATMENT OF SYSTEMIC IMMUNE ACTIVATION SYNDROMES” (TRANQUIS THERAPEUTICS, INC., priority 2020, published 2024)
Where a name gives a salt, the structure may show the parent alone.

Columns and labels:
ALS = details: transgenic mouse model of ALS; cited from earlier work
TNFα = TNFα release by LPS-stimulated BV2 cells (ELISA); format: cell-based, murine; details: BV-2 cells, ELISA, concentration-response
Experimental: First, 100 μl of supernatant was removed from Cell Plate and transferred to a Dilution Plate, which was then centrifuged at 216×g for 10 minutes to remove particulates. The dilution plate was either assayed immediately or aliquots were taken and stored at stored at ≤−20° C.; repeated freeze-thaw cycles were avoided.
Next, a standard curve was prepared by first pipetting 900 ul of Calibrator Diluent RD5K into the 700 pg/mL tube, followed by 200 μl of the appropriate calibrator diluent in the remaining tubes. The stock solution was used to produce a dilution. The resulting tubes were then thoroughly mixed. The Mouse TNFα Standard (700 pg/mL) served as the high standard, and the Calibrator Diluent RD5T served as the zero standard at 0 pg/ml.
Assay Diluent RD1-63 (50 ul) was then added to the center of each well and mixed before and during its use. Then, 50 ul of either standard, control, or sample was added to the center of each well, and covered with adhesive strip. The plate was then mixed for 1 minute and incubated for 2 hours at room temperature.
Each well was then aspirated and washed by filling each well with Wash Buffer (400 ul) five times. After the last wash, the remaining Wash Buffer was removed by aspirating or decanting. TNFα […] conjugate (100 ul) was then added to each well, covered with adhesive strip, incubated for 2 hours at room temperature, and washed and/or aspirated five times.
Substrate solution (100 ul) was then added to each well, incubated in the dark for 30 minutes at room temperature, followed by addition of 100 μl of Stop Solution and mixed. The optical density of each well was determined within 30 minutes by using a microplate reader set to 450 nm.
Plates were read on a Spectrostar Nano machine with built-in MARS data analysis at […].
For TNFα ELISA, the BV-2 cells were very responsive to low concentrations of LPS. A concentration range of 0.1 ng/ml to 1,000 ng/ml was tested. 0.3 ng/ml LPS produced enough TNFα release (8-10 fold above background) from these cells after 22 hours stimulation without saturating the linear range of the ELISA detection system. If higher LPS concentrations are used for stimulating BV-2 cells, a […] is advised to stay within the linear range of the detection system. The current TNFα protocol uses 10,000 cells per well in 96 well plate. A cell count titration can optimize S/B ratio. Miniaturization from 96 well to 384 well is also feasible with this assay.
The TNFα ELISA assay is described in Example 5. The IL-6 assay is described below.

IL-6 = IL-6 secretion from LPS-stimulated BV2 cells (ELISA); format: cell-based, murine; details: BV-2 cells, concentration-response
Experimental: [1] First, 100 μl of supernatant from cell plate was removed and transferred to a dilution plate, followed by centrifugation of the dilution plate at 216×g for 10 minutes to remove particulates. The dilution plate was then either assayed immediately or aliquots were taken and stored at ≤−20° C.; repeated freeze-thaw cycles should be avoided. Mouse IL-6 Standard (500 pg/mL) served as the high standard, and the Calibrator Diluent RD5T served as the zero standard at 0 pg/ml. Assay Diluent RD1-14 (50 μl) was then added to the center of each well and mixed before and during its use. Then, 50 μl of standard, control, or sample was added to the center of each well, and covered with adhesive strip. The plate was then mixed for 1 minute and incubated for 2 hours at room temperature. Each well was then aspirated and washed by filling each well with wash buffer (400 ul) five times. After the last wash, the remaining Wash Buffer was removed by aspirating or decanting. Mouse IL-6 conjugate (100 ul) was then added to each well, covered with adhesive strip, incubated for 2 hours at room temperature, and washed and/or aspirated five times.
Substrate solution (100 ul) was then added to each well, incubated in the dark for 30 minutes at room temperature, followed by addition of 100 ul of Stop Solution and mixed. The optical density of each well was determined within 30 minutes by using a microplate reader set to 450 nm.

sepsis = test: Mouse model of sepsis / hyperinflammation (virus followed by LPS, as described in Wang); details: mice, intravenous, various doses
Experimental: Briefly, mice are anesthetized with a ketamine/xylazine mixture. A virus, such as a coronavirus, influenza virus, rhinovirus, respiratory syncytial virus, metapneumovirus, adenovirus, or a boca virus, is administered. The virus may be administered intranasally dropwise.
Next, LPS diluted in a buffer, such as PBS, is injected intraperitoneally at specific doses.
To provide comparators for assessing the effects of TQS-168 and its analogs, groups of positive control mice are treated with one or more antibodies against pro-inflammatory cytokines of interest: anti-NK1.1 antibody (PK136; Bio X Cell) diluted in PBS is injected at 100 μg per injection (100 μL) retro-orbitally concurrently with each challenge; anti-IFNγ antibody (XMG1.2, Bio X Cell) is diluted in PBS and injected at 500 μg per injection (100 μL) retro-orbitally concurrently with each challenge; anti-IL6R (15A7.10 mg/kg; Bio X Cell), anti-TNFα (XT3.11, 500 μg per injection; Bio X Cell), anti-IFNαR (MAR1-5A3, 10 mg/kg; Bio X Cell), and anti-IL1β (B122, 500 μg per injection; Bio X Cell) are injected retro-orbitally. For a negative control, isotype antibody is injected retro-orbitally.
The pro-inflammatory cytokines can be measured using the ELISA assay described in Example 1.

[1] = tested on: 12 human primary cell-based systems; details: 5000 μM, comparator profile; cited from earlier work

CC(=O)N(O)CCCCCNC(=O)CCC(=O)N(O)CCCCCNC(=O)CCC(=O)N(O)CCCCCN [Deferoxamine, deferoxamine mesylate]
disease onset (ALS): delay
lifespan (ALS): extend

CC(C)(C)c1ccc(-c2nc3ccncc3[nH]2)cc1 [TQS-234]
LPS-stimulated TNFα secretion (TNFα): decrease
LPS-stimulated IL-6 secretion (IL-6): decrease

CC(C)(C)c1ccc(-c2nc3c(F)cc(F)cc3[nH]2)cc1 [TQS-235]
LPS-stimulated TNFα secretion (TNFα): decrease
LPS-stimulated IL-6 secretion (IL-6): decrease
circulating concentrations of pro-inflammatory cytokines (sepsis): effective in reducing
hyperinflammatory symptoms (sepsis): effective in reducing

CC(C)(C)c1ccc(-c2nc3cc(C(F)(F)F)ccc3[nH]2)cc1 [TQS-236]
LPS-stimulated TNFα secretion (TNFα): decrease
LPS-stimulated IL-6 secretion (IL-6): decrease

CC(C)(C)c1cccc(-c2nc3c(F)cc(F)cc3[nH]2)c1 [TQS-237]
LPS-stimulated TNFα secretion (TNFα): decrease
LPS-stimulated IL-6 secretion (IL-6): decrease
circulating concentrations of pro-inflammatory cytokines (sepsis): effective in reducing
hyperinflammatory symptoms (sepsis): effective in reducing

CC(C)(C)c1ccc(-c2cn3ccccc3n2)cc1 [TQS-238]
LPS-stimulated TNFα secretion (TNFα): decrease
LPS-stimulated IL-6 secretion (IL-6): decrease

[2H]c1c([2H])c([2H])c2[nH]c(-c3ccc(C(C)(C)C)cc3)nc2c1[2H] [TQS-239]
LPS-stimulated TNFα secretion (TNFα): decrease
LPS-stimulated IL-6 secretion (IL-6): decrease

CC(C)(C)c1ccc(-c2nc3c(F)c(F)c(F)cc3[nH]2)cc1 [TQS-240]
LPS-stimulated TNFα secretion (TNFα): decrease
LPS-stimulated IL-6 secretion (IL-6): decrease
circulating concentrations of pro-inflammatory cytokines (sepsis): effective in reducing
hyperinflammatory symptoms (sepsis): effective in reducing

CN(C)C(=N)N=C(N)N [metformin, metformin hydrochloride]
T-cell proliferation, IgG, TNFα, and IL-8 [1]: inhibit
